Test results taken from ChEMBL document CHEMBL1201862, “PubChem BioAssay data set” (2004).
Where a name gives a salt, the structure may show the parent alone.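 Briefly, cells in 96-well plates were exposed to five compound concentrations for 48 h, and endpoints were estimated by linear interpolation. Abbreviation: GI50, concentration required for 50% inhibition of growth.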 Calls of active or inactive are those of the source. Rule as the data show it: active = GI50 up to about 1.1 µM and inactive = higher.

How the values were obtained:
Test in all cases: inhibition of tumour cell growth, NCI panel, 48 h
HL-60 = test system: HL-60
A549 = test system: A549
NCI-H522 = test system: NCI-H522
SNB-19 = test system: SNB-19
ACHN = test system: ACHN
RPMI-8226 = test system: RPMI-8226
MOLT-4 = test system: MOLT-4
CCRF-CEM = test system: CCRF-CEM
HOP-62 = test system: HOP-62
NCI-H23 = test system: NCI-H23
SF-268 = test system: SF-268
SNB-75 = test system: SNB-75
HCT-116 = test system: HCT-116
786-0 = test system: 786-0
EKVX = test system: EKVX
HT-29 = test system: HT-29

Measured: GI50

CCC1CCC2CCCC(C)N12 (configuration not stated)
inactive: HL-60 > 100 µM | A549 > 100 µM | NCI-H522 > 100 µM | SNB-19 > 100 µM | ACHN > 100 µM | RPMI-8226 > 100 µM | MOLT-4 > 100 µM | CCRF-CEM > 100 µM | HOP-62 > 100 µM | NCI-H23 > 100 µM | SF-268 > 100 µM | SNB-75 > 100 µM | HCT-116 > 100 µM | 786-0 > 100 µM | EKVX > 100 µM

NCCOCn1cc(Cc2cccc(OCc3ccccc3)c2)c(=O)[nH]c1=O
inactive: HL-60 55.5 µM | A549 > 100 µM | SNB-19 > 100 µM | ACHN > 10 µM | RPMI-8226 > 100 µM | HT-29 71.1 µM | MOLT-4 73.8 µM | CCRF-CEM 44.1 µM | NCI-H23 > 100 µM | SNB-75 79.8 µM | HCT-116 86.7 µM | 786-0 53.6 µM | EKVX > 100 µM

CC(=O)NNc1ncc(C(=O)/C=C/c2ccccc2C)s1
inactive: HL-60 > 100 µM | A549 > 100 µM | NCI-H522 > 100 µM | SNB-19 > 100 µM | ACHN > 100 µM | RPMI-8226 > 100 µM | HT-29 > 100 µM | MOLT-4 > 100 µM | CCRF-CEM > 100 µM | HOP-62 > 100 µM | NCI-H23 > 100 µM | SF-268 > 100 µM | SNB-75 > 100 µM | 786-0 > 100 µM | EKVX > 100 µM

[O-][S+]1Cc2ccccc2CSS1 (configuration not stated)
inactive: HL-60 3.44 µM | A549 19 µM | NCI-H522 6.28 µM | SNB-19 35.5 µM | ACHN 12.8 µM | RPMI-8226 16.3 µM | HT-29 14.4 µM | MOLT-4 12.6 µM | NCI-H23 14.3 µM | SF-268 23.9 µM | SNB-75 19.6 µM | HCT-116 15 µM | 786-0 15.7 µM | EKVX 25.2 µM

COC(=O)C1=CCS(=O)(=O)C1
inactive: HL-60 > 100 µM | A549 > 100 µM | SNB-19 > 100 µM | ACHN > 100 µM | RPMI-8226 > 100 µM | HT-29 > 100 µM | MOLT-4 > 100 µM | CCRF-CEM > 10 µM | HOP-62 > 100 µM | NCI-H23 > 100 µM | SF-268 > 100 µM | SNB-75 > 100 µM | HCT-116 > 100 µM | 786-0 > 100 µM | EKVX > 100 µM

Nc1cccc2c1-c1c(cccc1[N+](=O)[O-])C2=O
inactive: HL-60 > 100 µM | A549 > 100 µM | NCI-H522 > 100 µM | SNB-19 > 100 µM | RPMI-8226 > 100 µM | HT-29 > 100 µM | MOLT-4 > 100 µM | CCRF-CEM > 100 µM | HOP-62 > 100 µM | NCI-H23 > 100 µM | SF-268 > 100 µM | SNB-75 > 100 µM | HCT-116 > 100 µM | 786-0 > 100 µM | EKVX > 100 µM

CCN(CC)CC(=O)/C=C/c1ccc(C)cc1
inactive: HL-60 20.2 µM | A549 27 µM | SNB-19 15.1 µM | ACHN 19.2 µM | RPMI-8226 34.6 µM | HT-29 22.3 µM | MOLT-4 31.9 µM | CCRF-CEM 2.93 µM | HOP-62 34.1 µM | NCI-H23 30.5 µM | SF-268 27.9 µM | SNB-75 24.3 µM | HCT-116 17.5 µM | 786-0 17.6 µM

CCOc1cn(C2OC(CO)C(O)C2O)c(=O)[nH]c1=O (configuration not stated)
inactive: HL-60 > 100 µM | A549 > 100 µM | NCI-H522 > 100 µM | SNB-19 > 100 µM | ACHN > 100 µM | RPMI-8226 > 100 µM | HT-29 > 100 µM | MOLT-4 > 100 µM | CCRF-CEM > 100 µM | HOP-62 > 100 µM | NCI-H23 > 100 µM | SF-268 > 100 µM | SNB-75 > 100 µM | HCT-116 > 100 µM | 786-0 > 100 µM | EKVX > 100 µM

Cc1cc2c(CC(=O)O)n[nH]c2c(C(=O)O)c1C
inactive: HL-60 > 100 µM | A549 > 100 µM | SNB-19 > 100 µM | ACHN > 100 µM | RPMI-8226 > 100 µM | HT-29 > 100 µM | MOLT-4 > 100 µM | CCRF-CEM > 100 µM | HOP-62 > 100 µM | NCI-H23 > 100 µM | SF-268 > 100 µM | SNB-75 > 100 µM | HCT-116 > 100 µM | 786-0 > 100 µM | EKVX > 100 µM

CC(C)C1C(=O)NC(CO)Cc2c[nH]c3c(C(c4c[nH]c5ccccc45)C(O)CO)ccc(c23)N1C (configuration not stated)
inactive: HL-60 5.11 µM | A549 23.5 µM | NCI-H522 > 100 µM | SNB-19 > 100 µM | ACHN 41.3 µM | RPMI-8226 > 100 µM | HT-29 > 100 µM | MOLT-4 49 µM | CCRF-CEM 30.1 µM | NCI-H23 > 100 µM | SF-268 > 100 µM | SNB-75 84.9 µM | HCT-116 > 100 µM | 786-0 62.8 µM | EKVX > 100 µM

O=c1/c(=C/c2ccc(Cl)cc2Cl)sc2nc3ccccc3n12
inactive: HL-60 > 100 µM | A549 > 100 µM | NCI-H522 > 100 µM | SNB-19 > 100 µM | ACHN > 100 µM | HT-29 > 100 µM | MOLT-4 > 100 µM | CCRF-CEM > 100 µM | HOP-62 > 100 µM | NCI-H23 > 100 µM | SF-268 > 100 µM | SNB-75 > 100 µM | HCT-116 71.9 µM | 786-0 > 100 µM | EKVX > 100 µM

COC1=CC(=O)C2C(C1=O)C(c1ccccc1)[C@H]2C (some centres not stated)
inactive: HL-60 38.9 µM | A549 > 100 µM | SNB-19 > 100 µM | ACHN 25.5 µM | RPMI-8226 35.9 µM | HT-29 > 100 µM | MOLT-4 > 10 µM | CCRF-CEM 28.4 µM | HOP-62 > 100 µM | NCI-H23 > 100 µM | SF-268 > 100 µM | SNB-75 32.3 µM | 786-0 > 100 µM | EKVX > 100 µM

O=C1Sc2ccccc2C(=O)N2CSCC12 (configuration not stated)
inactive: HL-60 > 100 µM | A549 > 100 µM | NCI-H522 > 100 µM | SNB-19 > 100 µM | ACHN > 100 µM | RPMI-8226 > 100 µM | HT-29 > 100 µM | MOLT-4 > 100 µM | CCRF-CEM > 100 µM | HOP-62 > 100 µM | NCI-H23 > 100 µM | SF-268 > 100 µM | SNB-75 > 100 µM | HCT-116 > 100 µM | 786-0 > 100 µM | EKVX > 100 µM

Cc1nccc2c1[nH]c1cc(O)ccc12 [HARMOL HYDROCHLORIDE]
inactive: HL-60 29 µM | A549 44.8 µM | SNB-19 > 100 µM | ACHN 31.8 µM | RPMI-8226 44.5 µM | HT-29 56.5 µM | MOLT-4 23.7 µM | CCRF-CEM 38.5 µM | HOP-62 91.6 µM | NCI-H23 76.7 µM | SF-268 > 100 µM | SNB-75 33 µM | HCT-116 41.5 µM | 786-0 55.2 µM | EKVX 68.2 µM
